# From ChEMBL document CHEMBL4118102 (J Med Chem, 2018)
# Columns and labels:
# [1] = biological target: Neuraminidase (Influenza A virus (A/Memphis/1/1971(H3N2)), UniProt P03471, E119V); design: species or system Influenza A virus (A/Fukui/45/2004(H3N2))
# [2] = biological target: Neuraminidase (Influenza A virus (A/Memphis/1/1971(H3N2)), UniProt P03471, E119V); design: species or system Influenza A virus (A/Fukui/45/2004(H3N2)); remark: listed apart in the source
Compound,IC50 [1] [µM],IC50 [2] [µM]
CC(=O)N[C@@H]1[C@@H](O)[C@@H](F)[C@](F)(C(=O)O)O[C@H]1[C@H](O)CCO,25.1,4.4
CC(=O)N[C@@H]1C[C@@H](F)[C@](F)(C(=O)O)O[C@H]1[C@H](O)[C@H](O)CO,3.71,3.67
